Data published in patent US11807647B2, “Crystal form of hepatitis B surface antigen inhibitor and application thereof” (FUJIAN AKEYLINK BIOTECHNOLOGY CO., LTD., priority 2019, dated 2023).

Assays:
hepatitis B = conditions: woodchuck model, used as a single drug; cited from earlier work
[1] = tested on: hepatitis B surface antigen (HBsAg); assay: In vitro HBV activity test, hepatitis B virus S antigen by ELISA in HepG2.2.15 cells; format: cell-based
Experimental: (§1) 1. Cell Lines: HepG2.2.15 Cells
(§2) 2. Reagents: • Pancreatin (Invitrogen-25300062) • DPBS (Corning-21031CVR) • Dimethyl sulfoxide (Sigma-D2650-100 ML) • High-throughput DNA purification kit (QIAamp 96 DNA Blood Kit, Qiagen-51162) • Quantitative faststart universal probe reagent (FastStart Universal Probe Master, Roche-04914058001) • Hepatitis B surface antigen quantitative detection kit (Autobio, CL 0310) • 3. Consumables and Instruments • 96-well cell culture plate (Corning-3599) • CO2 incubator (HERA-CELL-240) • Optical sealing film (ABI-4311971) • Quantitative PCR 96-well plate (Applied Biosystems-4306737) • Fluorescence quantitative PCR instrument (Applied Biosystems-7500 real time PCR system)
(§3) 1. HepG2.2.15 cells (4×10^4 cells/well) were seeded to a 96-well plate and incubated overnight at 37° C., 5% CO2.
2. […]
6.3 Determination of the content of hepatitis B virus S antigen by ELISA involve respectively adding 50 μl of samples and standards to a reaction plate, and then adding 50 μL of enzyme conjugate to each well; shaking same to mix uniformly, and incubating at 37° C. for 60 minutes; washing the plate 5 times with a washing solution, adding 50 μL of luminescent substrate to each well, mixing uniformly, and reacting same in the dark at room temperature for 10 minutes; and finally, detecting chemiluminescence intensity with a microplate reader. […]

HBV-DNA = assay: In vitro HBV activity test, HBV-DNA by quantitative PCR in HepG2.2.15 cells; format: cell-based, Hepatitis B Virus
Experimental: as §1, §2, §3
2. On day 2, the compound was diluted to a total of 8 concentrations, with a 3-fold gradient dilution. The compounds at different concentrations were added to culture wells in duplicate. The final concentration of dimethyl sulfoxide in the culture medium was 0.5%. 10 μM ETV was used as 100% inhibition control; 0.5% dimethyl sulfoxide was used as a 0% inhibition control.
3. On day 5, the culture medium was replaced with a fresh culture medium containing the compound.
4. […]

[2] = Stability test of crystal form A as a solid under high temperature and high humidity conditions; format: physicochemical; conditions: 40° C./75% humidity
Experimental: 2 samples of crystal form A of the compound of formula (I) were weighed in parallel (about 100 mg each), placed on the bottom of glass sample bottles, and spread out as a thin layer. The bottles were sealed with aluminum foil paper, and some small holes were made on the aluminum foil paper to ensure that the samples could fully contact with ambient air. The bottles were placed in a constant temperature and humidity chamber at 40° C./75% humidity. The samples placed under the above-mentioned conditions were sampled and tested on day 5 and day 10. The test results were compared with initial test results on day 0.

[3] = Physical stability test of crystal form A as a solid under various temperature, humidity and light conditions; format: physicochemical
Experimental: 4 samples of crystal form A of the compound of formula (I) were weighed in parallel (about 100 mg each), placed on the bottom of glass sample bottles, and spread out as a thin layer. The bottles were sealed with aluminum foil paper, and some small holes were made on the aluminum foil paper to ensure that the samples could fully contact with ambient air. The prepared 4 samples were placed under a relative humidity of 25° C./92.5%, 60° C., 40° C./75% and light conditions, respectively, to investigate the physical stability of the samples on day 10. In addition, about 100 mg of crystal form A solid of the compound of formula (I) was separately weighed, placed at the bottom of a glass sample bottle, sealed with a screw cap and stored at −20° C. for use as a control sample. On day 10, all samples were taken out, returned to room temperature, and observed for appearance changes, and the crystal forms of the samples were detected by XRPD. By comparing an accelerated sample with the control sample, the physical stability of crystal form A of the compound of formula (I), as a solid, was determined.

[4] = 25° C./92.5% relative humidity (open), Day 10
[5] = 40° C./75% relative humidity (open), Day 10
[6] = Day 0 (−20° C. storage with seal) (control sample), time point Day 10

For COCCCOc1cc2c(cc1OC)-c1cc(=O)c(C(=O)O)cn1[C@H](C(C)C)C2 [RG7834], the “reduction of HBV-DNA” value (hepatitis B) is listed as 1.7 Log and the “reduction of surface antigens” value (hepatitis B) is listed as 2.57 Log.
With COCCCOc1cc2c(cc1Cl)-c1cc(=O)c(C(=O)O)cn1[C@H](c1cccs1)O2 [Compound of formula (I)] the “inhibition of hepatitis B surface antigen (HBsAg) (experimental conclusion)” value ([1]; HepG2.2.15 cells) was “effectively inhibit”, the EC50 ([1]; Hepatitis B virus, HepG2.2.15, 192 h, read-out: HBsAg EC50) was 1.54 nM and the “inhibition of HBV-DNA (experimental conclusion)” value (HBV-DNA) was “effectively inhibit”. The EC50 (HBV-DNA; Hepatitis B virus, 192 h, culture medium collected on day 8) was 1.13 nM.
For COCCCOc1cc2c(cc1Cl)-c1cc(=O)c(C(=O)O)cn1[C@H](c1cccs1)O2 [crystal form A], the Appearance ([2]; day 0 (initial)) was “White powder”, the Polymorph ([2]; day 0 (initial)) was “Polymorph A” and the Purity ([2]; day 0 (initial)) was 99.79%. For the same compound, the Total impurities ([2]; day 0 (initial)) was 0.21%, the Appearance ([2]; day 5) was “White powder” and the Polymorph ([2]; day 5) was “Polymorph A”. The Purity ([2]; day 5) was 99.79%, the Total impurities ([2]; day 5) was 0.21% and the Appearance ([2]; day 10) was “White powder”. For the same compound, the Polymorph ([2]; day 10) was “Polymorph A”, the Purity ([2]; day 10) was 99.79% and the Total impurities ([2]; day 10) was 0.21%. The “stability (experimental conclusion)” value ([2]; solid, up to day 10) was “good stability”, the Character [3, 4] was “White powder” and the Polymorph [3, 4] was “Polymorph A”. The Purity [3, 4] was 99.80%, the Character [3, 5] was “White powder” and the Polymorph [3, 5] was “Polymorph A”. The Purity [3, 5] was 99.79%, the Character ([3]; 60° C. (open), Day 10) was “White powder” and the Polymorph ([3]; 60° C. (open), Day 10) was “Polymorph A”. For the same compound, the Purity ([3]; 60° C. (open), Day 10) was 99.75%, the Character [3, 6] was “White powder” and the Polymorph [3, 6] was “Polymorph A”. The Purity [3, 6] was 99.79%, the Character ([3]; Light, Day 10) was “White powder” and the Polymorph ([3]; Light, Day 10) was “Polymorph A”. The Purity ([3]; Light, Day 10) was 99.71% and the “stability (experimental conclusion)” value ([3]; solid, various temperature, humidity and light conditions, day 10) was “good stability”.
